# Experimental data published in ChEMBL document CHEMBL3046000, “Design and synthesis of 1-(benzothiazol-5-yl)-1H-1,2,4-triazol-5-ones as protoporphyrinogen oxidase inhibitors” (Bioorg Med Chem, 2013).
# What was measured:
# Chenopodium album = test: Post-emergence herbicidal activity against Chenopodium album seedlings assessed as plant growth inhibition at 150 g ai/ha measured 15 days after compound treatment under greenhouse conditions; format: functional; details: 360 h, read-out: GI
# Amaranthus retroflexus = test: Post emergence herbicidal activity against Amaranthus retroflexus seedlings assessed as plant growth inhibition at 150 g ai/ha measured 15 days after compound treatment under greenhouse conditions; format: functional; details: 360 h, read-out: GI
# Brassica juncea = test: Post-emergence herbicidal activity against Brassica juncea seedlings assessed as plant growth inhibition at 150 g ai/ha measured 15 days after compound treatment under greenhouse conditions; format: functional; details: 360 h, read-out: GI
# Setaria faberi = test: Post-emergence herbicidal activity against Setaria faberi (Giant Foxtail) seedlings assessed as plant growth inhibition at 150 g ai/ha measured 15 days after compound treatment under greenhouse conditions; format: functional; details: 360 h, read-out: GI
# Digitaria sanguinalis = test: Post-emergence herbicidal activity against Digitaria sanguinalis (hairy crabgrass) seedlings assessed as plant growth inhibition at 150 g ai/ha measured 15 days after compound treatment under greenhouse conditions; format: functional; details: 360 h, read-out: GI
# Echinochloa crus-galli = test: Post emergence herbicidal activity against Echinochloa crus-galli (barnyard grass) seedlings assessed as plant growth inhibition at 150 g ai/ha measured 15 days after compound treatment under greenhouse conditions; format: functional; details: 360 h, read-out: GI
# [1] = target: T1, Protoporphyrinogen oxidase, chloroplastic (Nicotiana tabacum, UniProt O24163); test: Inhibition of Nicotiana tabacum (tobacco) recombinant PPO assessed as protoporphyrin IX formation at room temperature by fluorimetric assay
# T1 sequence (O24163 whole entry): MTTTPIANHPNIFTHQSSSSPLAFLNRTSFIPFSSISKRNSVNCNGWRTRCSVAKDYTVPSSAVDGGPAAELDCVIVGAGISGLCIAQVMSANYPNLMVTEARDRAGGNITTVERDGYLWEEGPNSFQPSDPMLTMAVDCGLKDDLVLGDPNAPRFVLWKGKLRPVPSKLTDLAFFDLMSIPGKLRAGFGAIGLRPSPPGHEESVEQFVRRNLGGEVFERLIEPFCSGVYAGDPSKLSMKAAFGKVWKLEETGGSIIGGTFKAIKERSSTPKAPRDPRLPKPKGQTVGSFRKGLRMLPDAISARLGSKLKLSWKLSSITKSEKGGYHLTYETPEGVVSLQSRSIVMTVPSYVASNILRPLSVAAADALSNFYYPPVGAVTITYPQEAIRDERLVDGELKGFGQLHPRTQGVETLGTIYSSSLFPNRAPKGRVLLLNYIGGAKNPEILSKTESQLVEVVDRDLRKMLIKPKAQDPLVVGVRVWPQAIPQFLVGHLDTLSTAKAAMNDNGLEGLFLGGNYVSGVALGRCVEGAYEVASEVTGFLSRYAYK
Ki [1],SMILES,inhibition of growth at 150 g/ha (Chenopodium album),inhibition of growth at 150 g/ha (Amaranthus retroflexus),inhibition of growth at 150 g/ha (Brassica juncea),inhibition of growth at 150 g/ha (Setaria faberi),inhibition of growth at 150 g/ha (Digitaria sanguinalis),inhibition of growth at 150 g/ha (Echinochloa crus-galli)
1.37 µM,CCOC(=O)CSc1nc2cc(-n3nc(C)n(C(F)F)c3=O)c(Cl)cc2s1,< 50%,80%,≥ 90%,80%,≥ 90%,≥ 90%
–,COC(=O)Sc1nc2cc(-n3nc(C)n(C(F)F)c3=O)c(Cl)cc2s1,< 50%,< 50%,< 50%,< 50%,< 50%,< 50%
–,CCOC(=O)Sc1nc2cc(-n3nc(C)n(C(F)F)c3=O)c(Cl)cc2s1,< 50%,< 50%,< 50%,< 50%,< 50%,< 50%
0.2 µM,C=CCSc1nc2cc(-n3nc(C)n(C(F)F)c3=O)c(F)cc2s1,< 50%,50%,< 50%,60%,60%,80%
0.3 µM,CCCSc1nc2cc(-n3nc(C)n(C(F)F)c3=O)c(F)cc2s1,< 50%,60%,60%,60%,80%,60%
13.9 µM,CSc1nc2cc(-n3nc(C)n(C(F)F)c3=O)c(Cl)cc2s1,50%,50%,60%,< 50%,50%,< 50%

SMILES,Ki [1],inhibition of growth at 150 g/ha (Chenopodium album),inhibition of growth at 150 g/ha (Amaranthus retroflexus),inhibition of growth at 150 g/ha (Brassica juncea),inhibition of growth at 150 g/ha (Setaria faberi),inhibition of growth at 150 g/ha (Digitaria sanguinalis),inhibition of growth at 150 g/ha (Echinochloa crus-galli)
CCCCSc1nc2cc(-n3nc(C)n(C(F)F)c3=O)c(F)cc2s1,0.21 µM,< 50%,60%,60%,80%,80%,60%
CCCCSc1nc2cc(-n3nc(C)n(C(F)F)c3=O)c(Cl)cc2s1,2.97 µM,< 50%,< 50%,50%,< 50%,< 50%,< 50%
C=CCSc1nc2cc(-n3nc(C)n(C(F)F)c3=O)c(Cl)cc2s1,3.13 µM,< 50%,60%,60%,60%,< 50%,60%
